In one data set the test system is K. pneumoniae. The data set can be described thus: MIC of ampicillin for the bacterial strain. It is filed as cell-based. The note with it: strain 1, K. pneumoniae, resistant.
The test system of the next data set is E. coli. The data set can be described thus: MIC of ampicillin for the bacterial strain. It counts as cell-based.
Data set [1] can be described thus: Negative control without enzyme: ampicillin dried on MALDI plate, MALDI-TOF detection. It counts as physicochemical. The note with it: water with 0.76 mM zinc, no enzyme, ambient temperature, one hour. The procedure:
In the present experiment, an analysis zone of a MALDI plate (VITEK® MS disposable slides TO-430) was treated with a beta-lactam antibiotic and tested in order to evaluate the capacity of the antibiotics to be cleaved by a beta-lactamase. Ampicillin was used as the model for the antibiotic beta-lactam. The experiment was carried out by implementing the steps below: • 2 μL of a solution of ampicillin in a concentration of 10 mg/mL in water was deposited in the form of a drop onto an analysis zone of the MALDI plate. The plate was incubated at 37° C., until the drop had dried out completely. • 2 μL of a recombinant beta-lactamase (β-lactamase from Pseudomonas aeruginosa, Sigma-Aldrich batch L6170-550UN. CAS: 9073-60-3). • 2 μL of recombinant β-lactamase at a concentration of 1 mg/mL in water was used diluted in water supplemented with zinc in the form of zinc sulfate (0.76 millimoles (mM)) to promote enzymatic activity, was deposited onto the dry analysis zone carrying ampicillin. […]

As for `CC1(C)S[C@@H]2[C@H](NC(=O)[C@H](N)c3ccccc3)C(=O)N2[C@H]1C(=O)O` [ampicillin], the “MIC of ampicillin (minimum inhibiting concentration of the strain)” value is 32 in the data set on K. pneumoniae; above 128 in the data set on E. coli (strain 2, E. coli, resistant, penicillinase); above 128 with E. coli (strain 3, E. coli, resistant, TEM β-lactamase); 4 with E. coli (strain 4, E. coli ATCC 25922, sensitive, no β-lactamase). Further, the “spontaneous hydrolysis on the plate” value in data set [1] is reported as “A little spontaneous hydrolysis”.

Values taken from US20210324441A1, “CHARACTERIZATION OF MICROORGANISMS VIA MALDI-TOF” (BIOMÉRIEUX, priority 2014, published 2021).
